{"source": "ChEMBL document CHEMBL3399993", "about": "“Design and synthesis of novel quinoline-aminopiperidine hybrid analogues as Mycobacterium tuberculosis DNA gyraseB inhibitors” (Bioorg Med Chem, 2015)", "note": "Active and inactive are the calls of the source. No cut-off for these calls is given here."}
{"species_on_record": "Danio rerio", "test": "Cardiotoxic inhibition of ERG channel in Zebrafish assessed as change in atrio ventricular beats ratio at 1 to 10 uM after 4 hrs", "assay_type": "organism-based, Cardiac ventricle", "settings": "in vivo"}
{"smiles": "COc1ccc2nc(C)cc(N3CCC(NC(=S)Nc4ccc(C)cc4)CC3)c2c1", "Activity": "Non-toxic"}
{"species_on_record": "Danio rerio", "test": "Cardiotoxic inhibition of ERG channel in Zebrafish assessed as change in heart rate of atria at 20 uM after 4 hrs", "assay_type": "organism-based", "settings": "in vivo"}
{"smiles": "CC(C)(C)c1ccc(C(O)CCCN2CCC(C(O)(c3ccccc3)c3ccccc3)CC2)cc1", "note": "(stereo not drawn) [TERFENADINE]", "Activity": "Toxic"}
{"molecular_target": "DNA gyrase subunit A/DNA gyrase subunit B (Mycobacterium tuberculosis (strain ATCC 25618 / H37Rv), UniProt P9WG45+P9WG47)", "sequence (P9WG45 whole entry)": "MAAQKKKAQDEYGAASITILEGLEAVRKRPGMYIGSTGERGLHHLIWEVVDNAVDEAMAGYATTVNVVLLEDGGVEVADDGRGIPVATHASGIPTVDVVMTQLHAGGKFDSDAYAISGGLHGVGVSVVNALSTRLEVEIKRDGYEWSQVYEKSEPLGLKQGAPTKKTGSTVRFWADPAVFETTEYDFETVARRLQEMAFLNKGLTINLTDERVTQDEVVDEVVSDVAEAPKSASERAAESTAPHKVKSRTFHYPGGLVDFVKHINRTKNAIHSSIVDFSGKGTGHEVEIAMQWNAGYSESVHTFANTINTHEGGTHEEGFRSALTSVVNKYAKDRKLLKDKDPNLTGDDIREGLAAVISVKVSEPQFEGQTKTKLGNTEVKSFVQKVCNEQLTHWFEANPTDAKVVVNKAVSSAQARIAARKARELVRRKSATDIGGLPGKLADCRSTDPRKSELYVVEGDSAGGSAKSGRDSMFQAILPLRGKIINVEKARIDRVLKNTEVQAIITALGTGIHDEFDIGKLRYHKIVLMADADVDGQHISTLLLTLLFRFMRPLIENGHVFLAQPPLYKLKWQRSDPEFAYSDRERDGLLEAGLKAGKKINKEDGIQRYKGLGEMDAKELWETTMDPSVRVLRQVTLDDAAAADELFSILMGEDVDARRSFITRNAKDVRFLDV", "sequence (P9WG47 whole entry)": "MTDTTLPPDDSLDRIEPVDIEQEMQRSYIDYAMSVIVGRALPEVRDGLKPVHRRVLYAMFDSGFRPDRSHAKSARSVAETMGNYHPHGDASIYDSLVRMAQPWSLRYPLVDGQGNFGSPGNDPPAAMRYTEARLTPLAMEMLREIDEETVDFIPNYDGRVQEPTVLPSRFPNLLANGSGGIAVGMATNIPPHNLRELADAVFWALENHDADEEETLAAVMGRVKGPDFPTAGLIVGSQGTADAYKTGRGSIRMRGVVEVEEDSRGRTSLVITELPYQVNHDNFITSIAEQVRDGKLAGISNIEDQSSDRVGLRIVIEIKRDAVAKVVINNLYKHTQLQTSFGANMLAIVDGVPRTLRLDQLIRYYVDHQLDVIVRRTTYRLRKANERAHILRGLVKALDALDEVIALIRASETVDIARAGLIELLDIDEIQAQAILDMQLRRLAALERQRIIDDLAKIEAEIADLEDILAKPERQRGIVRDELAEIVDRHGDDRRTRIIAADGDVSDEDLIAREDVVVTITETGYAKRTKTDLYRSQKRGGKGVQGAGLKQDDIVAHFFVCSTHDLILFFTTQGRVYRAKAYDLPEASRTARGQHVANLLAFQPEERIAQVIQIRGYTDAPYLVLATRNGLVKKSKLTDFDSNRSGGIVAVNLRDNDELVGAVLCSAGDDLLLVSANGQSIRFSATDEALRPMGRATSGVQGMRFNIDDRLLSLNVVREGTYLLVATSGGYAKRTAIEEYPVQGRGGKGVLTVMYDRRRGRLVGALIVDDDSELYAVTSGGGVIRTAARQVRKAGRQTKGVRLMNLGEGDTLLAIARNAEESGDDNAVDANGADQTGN", "test": "Inhibition of Mycobacterium tuberculosis GyrA/GyrB using relaxed pBR322 substrate incubated for 30 mins by ethidium bromide staining and electrophoresis based DNA supercoiling assay", "settings": "not given", "units": {"IC50": "µM"}}
{"smiles": "COc1ccc2nc(C)cc(N3CCC(NC(=S)Nc4ccc(Cl)cc4)CC3)c2c1", "IC50": 0.62}
{"smiles": "COc1ccc2nc(C)cc(N3CCC(NC(=S)Nc4ccc(C)cc4)CC3)c2c1", "IC50": 7.94}
{"smiles": "Cc1cc(N2CCC(NC(=S)Nc3ccc(Cl)cc3)CC2)c2cc(F)ccc2n1", "IC50": 21.5}
{"smiles": "COc1ccc2nc(C)cc(N3CCC(NC(=O)Nc4ccccc4)CC3)c2c1", "IC50": 9.32}
{"smiles": "COc1ccc(NC(=O)NC2CCN(c3cc(C)nc4ccc(OC)cc34)CC2)cc1", "IC50": 5.86}
{"smiles": "Cc1cc(N2CCC(NC(=S)Nc3ccc(Cl)cc3)CC2)c2ccccc2n1", "IC50": 8.12}
{"smiles": "Cc1cc(N2CCC(NC(=S)Nc3ccccc3)CC2)c2cc(C(F)(F)F)ccc2n1", "IC50": 29.4}
{"smiles": "Cc1ccc(NC(=O)NC2CCN(c3cc(C)nc4ccc(C(F)(F)F)cc34)CC2)cc1", "IC50": 9.2}
{"smiles": "Cc1cc(N2CCC(NC(=S)Nc3ccccc3)CC2)c2cc(F)ccc2n1", "IC50": 39.4}
{"smiles": "Cc1cc(N2CCC(NC(=S)Nc3ccc([N+](=O)[O-])cc3)CC2)c2ccccc2n1", "IC50": 1.21}
{"smiles": "Cc1cc(N2CCC(NC(=S)Nc3ccc(F)cc3)CC2)c2cc(F)ccc2n1", "IC50": 23.5}
{"smiles": "COc1ccc2nc(C)cc(N3CCC(NC(=O)Nc4ccc([N+](=O)[O-])cc4)CC3)c2c1", "IC50": 5.33}
{"species_on_record": "Danio rerio", "test": "Cardiotoxic inhibition of ERG channel in Zebrafish assessed as change in atrio ventricular beats ratio at 20 uM after 4 hrs", "assay_type": "organism-based, Cardiac ventricle", "settings": "in vivo"}
{"smiles": "CC(C)(C)c1ccc(C(O)CCCN2CCC(C(O)(c3ccccc3)c3ccccc3)CC2)cc1", "note": "(stereo not drawn) [TERFENADINE]", "Activity": "Toxic"}
{"system": "not listed separately", "test": "Cytotoxicity against mouse RAW264.7 cells assessed as inhibition of cell growth at 50 uM after 48 hrs by MTT assay", "assay_type": "cell-based", "settings": "read-out: GI", "units": {"inhibition at 48 h, 50 µM": "%"}}
{"smiles": "COc1ccc2nc(C)cc(N3CCC(NC(=S)Nc4ccc(Cl)cc4)CC3)c2c1", "inhibition at 48 h, 50 µM": 29.7}
{"smiles": "COc1ccc2nc(C)cc(N3CCC(NC(=S)Nc4ccc(C)cc4)CC3)c2c1", "inhibition at 48 h, 50 µM": 44.9}
{"smiles": "Cc1cc(N2CCC(NC(=S)Nc3ccc(Cl)cc3)CC2)c2cc(F)ccc2n1", "inhibition at 48 h, 50 µM": 32.3}
{"smiles": "COc1ccc2nc(C)cc(N3CCC(NC(=O)Nc4ccccc4)CC3)c2c1", "inhibition at 48 h, 50 µM": 66.5}
{"smiles": "COc1ccc(NC(=O)NC2CCN(c3cc(C)nc4ccc(OC)cc34)CC2)cc1", "inhibition at 48 h, 50 µM": 19.6}
{"smiles": "Cc1cc(N2CCC(NC(=S)Nc3ccc(Cl)cc3)CC2)c2ccccc2n1", "inhibition at 48 h, 50 µM": 20.8}
{"smiles": "Cc1cc(N2CCC(NC(=S)Nc3ccccc3)CC2)c2cc(C(F)(F)F)ccc2n1", "inhibition at 48 h, 50 µM": 23.3}
{"smiles": "Cc1ccc(NC(=O)NC2CCN(c3cc(C)nc4ccc(C(F)(F)F)cc34)CC2)cc1", "inhibition at 48 h, 50 µM": 16.2}
{"smiles": "Cc1cc(N2CCC(NC(=S)Nc3ccccc3)CC2)c2cc(F)ccc2n1", "inhibition at 48 h, 50 µM": 37.4}
{"smiles": "Cc1cc(N2CCC(NC(=S)Nc3ccc([N+](=O)[O-])cc3)CC2)c2ccccc2n1", "inhibition at 48 h, 50 µM": 31.8}
{"smiles": "Cc1cc(N2CCC(NC(=S)Nc3ccc(F)cc3)CC2)c2cc(F)ccc2n1", "inhibition at 48 h, 50 µM": 33.9}
{"smiles": "COc1ccc2nc(C)cc(N3CCC(NC(=O)Nc4ccc([N+](=O)[O-])cc4)CC3)c2c1", "inhibition at 48 h, 50 µM": 35}
{"species_on_record": "Danio rerio", "test": "Cardiotoxic inhibition of ERG channel in Zebrafish assessed as change in heart rate of ventricles at 30 uM after 4 hrs", "assay_type": "organism-based", "settings": "in vivo"}
{"smiles": "COc1ccc2nc(C)cc(N3CCC(NC(=S)Nc4ccc(C)cc4)CC3)c2c1", "Activity": "Toxic"}
{"species_on_record": "Danio rerio", "test": "Cardiotoxic inhibition of ERG channel in Zebrafish assessed as change in atrio ventricular beats ratio at 1 uM to 30 uM after 4 hrs", "assay_type": "organism-based, Cardiac ventricle", "settings": "in vivo"}
{"smiles": "COc1ccc2nc(C)cc(N3CCC(NC(=S)Nc4ccc(Cl)cc4)CC3)c2c1", "Activity": "Non-toxic"}
{"molecular_target": "DNA gyrase subunit B (Staphylococcus aureus) (UniProt P0A0K8)", "sequence (P0A0K8 2-644 limits assumed)": "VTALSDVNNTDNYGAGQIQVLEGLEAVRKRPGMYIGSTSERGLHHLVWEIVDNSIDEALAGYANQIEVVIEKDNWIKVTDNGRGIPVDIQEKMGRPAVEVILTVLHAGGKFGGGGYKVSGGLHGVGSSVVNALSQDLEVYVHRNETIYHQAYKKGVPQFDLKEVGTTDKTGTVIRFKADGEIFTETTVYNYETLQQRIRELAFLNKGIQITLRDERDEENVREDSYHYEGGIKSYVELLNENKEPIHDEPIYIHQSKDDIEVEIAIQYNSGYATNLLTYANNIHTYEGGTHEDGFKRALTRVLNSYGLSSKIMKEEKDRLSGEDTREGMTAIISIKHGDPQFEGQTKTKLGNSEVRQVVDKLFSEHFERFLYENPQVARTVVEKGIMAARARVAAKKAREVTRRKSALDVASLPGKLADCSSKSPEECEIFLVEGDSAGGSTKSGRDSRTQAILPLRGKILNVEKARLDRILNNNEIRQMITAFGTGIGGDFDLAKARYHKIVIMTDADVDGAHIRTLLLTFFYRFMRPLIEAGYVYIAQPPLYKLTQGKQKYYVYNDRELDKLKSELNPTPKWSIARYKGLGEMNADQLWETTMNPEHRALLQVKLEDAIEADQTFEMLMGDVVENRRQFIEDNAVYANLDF", "test": "Inhibition of Staphylococcus aureus GyrB at 100 uM", "settings": "not given"}
{"smiles": "COc1ccc2nc(C)cc(N3CCC(NC(=S)Nc4ccc(Cl)cc4)CC3)c2c1", "inhibition": "inactive"}
{"species_on_record": "Danio rerio", "test": "Cardiotoxic inhibition of ERG channel in Zebrafish assessed as change in heart rate of ventricles at 20 uM after 4 hrs", "assay_type": "organism-based", "settings": "in vivo"}
{"smiles": "CC(C)(C)c1ccc(C(O)CCCN2CCC(C(O)(c3ccccc3)c3ccccc3)CC2)cc1", "note": "(stereo not drawn) [TERFENADINE]", "Activity": "Toxic"}
{"species_on_record": "Danio rerio", "test": "Cardiotoxic inhibition of ERG channel in Zebrafish assessed as change in heart rate of ventricles at 1 uM to 30 uM after 4 hrs", "assay_type": "organism-based", "settings": "in vivo"}
{"smiles": "COc1ccc2nc(C)cc(N3CCC(NC(=S)Nc4ccc(Cl)cc4)CC3)c2c1", "Activity": "Non-toxic"}
{"species_on_record": "Danio rerio", "test": "Cardiotoxic inhibition of ERG channel in Zebrafish assessed as change in heart rate of atria at 1 uM to 30 uM after 4 hrs", "assay_type": "organism-based", "settings": "in vivo"}
{"smiles": "COc1ccc2nc(C)cc(N3CCC(NC(=S)Nc4ccc(Cl)cc4)CC3)c2c1", "Activity": "Non-toxic"}
{"species_on_record": "Danio rerio", "test": "Cardiotoxic inhibition of ERG channel in Zebrafish assessed as change in heart rate of ventricles at 1 uM to 10 uM after 4 hrs", "assay_type": "organism-based", "settings": "in vivo"}
{"smiles": "COc1ccc2nc(C)cc(N3CCC(NC(=S)Nc4ccc(C)cc4)CC3)c2c1", "Activity": "Non-toxic"}
{"molecular_target": "DNA gyrase subunit B (Mycobacterium smegmatis, UniProt P0C559)", "sequence (P0C559 whole entry)": "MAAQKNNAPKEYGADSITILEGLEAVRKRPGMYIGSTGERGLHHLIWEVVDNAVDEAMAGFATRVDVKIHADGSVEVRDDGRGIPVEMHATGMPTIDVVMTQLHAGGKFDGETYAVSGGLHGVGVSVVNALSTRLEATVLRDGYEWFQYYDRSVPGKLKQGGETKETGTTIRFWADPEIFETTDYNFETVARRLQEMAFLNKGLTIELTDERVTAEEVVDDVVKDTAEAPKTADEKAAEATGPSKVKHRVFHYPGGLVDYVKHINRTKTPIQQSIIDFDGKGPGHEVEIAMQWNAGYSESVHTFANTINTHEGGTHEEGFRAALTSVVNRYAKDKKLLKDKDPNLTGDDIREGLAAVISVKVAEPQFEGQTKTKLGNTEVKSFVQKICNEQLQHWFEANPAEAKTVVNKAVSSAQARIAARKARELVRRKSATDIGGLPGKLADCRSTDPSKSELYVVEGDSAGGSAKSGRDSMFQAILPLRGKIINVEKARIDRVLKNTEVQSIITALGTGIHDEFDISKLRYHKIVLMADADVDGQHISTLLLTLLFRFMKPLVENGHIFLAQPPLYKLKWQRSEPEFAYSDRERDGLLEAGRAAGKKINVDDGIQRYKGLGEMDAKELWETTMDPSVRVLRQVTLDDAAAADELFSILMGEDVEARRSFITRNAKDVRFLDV", "test": "Inhibition of Mycobacterium smegmatis GyrB ATPase activity expressed in Escherichia coli BL21 (DE3) pLysS cells after 100 mins by inorganic phosphate release detection based malachite green reagent assay", "set-up": "species or system Mycolicibacterium smegmatis", "settings": "not given", "units": {"IC50": "µM"}}
{"smiles": "COc1ccc2nc(C)cc(N3CCC(NC(=S)Nc4ccc(Cl)cc4)CC3)c2c1", "IC50": 0.95}
{"smiles": "COc1ccc2nc(C)cc(N3CCC(NC(=S)Nc4ccc(C)cc4)CC3)c2c1", "IC50": 11.1}
{"smiles": "Cc1cc(N2CCC(NC(=S)Nc3ccc(Cl)cc3)CC2)c2cc(F)ccc2n1", "IC50": 41.1}
{"smiles": "COc1ccc2nc(C)cc(N3CCC(NC(=O)Nc4ccccc4)CC3)c2c1", "IC50": 12.2}
{"smiles": "COc1ccc(NC(=O)NC2CCN(c3cc(C)nc4ccc(OC)cc34)CC2)cc1", "IC50": 9.25}
{"smiles": "Cc1cc(N2CCC(NC(=S)Nc3ccc(Cl)cc3)CC2)c2ccccc2n1", "IC50": 12.3}
{"smiles": "Cc1cc(N2CCC(NC(=S)Nc3ccccc3)CC2)c2cc(C(F)(F)F)ccc2n1", "IC50": 39}
{"smiles": "Cc1ccc(NC(=O)NC2CCN(c3cc(C)nc4ccc(C(F)(F)F)cc34)CC2)cc1", "IC50": 16.6}
{"smiles": "Cc1cc(N2CCC(NC(=S)Nc3ccccc3)CC2)c2cc(F)ccc2n1", "IC50": 68.2}
{"smiles": "Cc1cc(N2CCC(NC(=S)Nc3ccc([N+](=O)[O-])cc3)CC2)c2ccccc2n1", "IC50": 3.77}
{"smiles": "Cc1cc(N2CCC(NC(=S)Nc3ccc(F)cc3)CC2)c2cc(F)ccc2n1", "IC50": 45.9}
{"smiles": "COc1ccc2nc(C)cc(N3CCC(NC(=O)Nc4ccc([N+](=O)[O-])cc4)CC3)c2c1", "IC50": 6.99}
{"species_on_record": "Danio rerio", "test": "Cardiotoxic inhibition of ERG channel in Zebrafish assessed as change in heart rate of atria at 1 uM to 10 uM after 4 hrs", "assay_type": "organism-based", "settings": "in vivo"}
{"smiles": "COc1ccc2nc(C)cc(N3CCC(NC(=S)Nc4ccc(C)cc4)CC3)c2c1", "Activity": "Non-toxic"}
{"system": "Mycobacterium tuberculosis", "test": "Antimycobacterial activity against Mycobacterium tuberculosis H37Rv ATCC 27294 incubated for 7 days by microplate alamar blue assay method", "assay_type": "functional", "settings": "H37Rv ATCC 27294, 168 h", "units": {"MIC": "µM"}}
{"smiles": "COc1ccc2nc(C)cc(N3CCC(NC(=S)Nc4ccc(Cl)cc4)CC3)c2c1", "MIC": 3.47}
{"smiles": "COc1ccc2nc(C)cc(N3CCC(NC(=S)Nc4ccc(C)cc4)CC3)c2c1", "MIC": 7.28}
{"smiles": "Cc1cc(N2CCC(NC(=S)Nc3ccc(Cl)cc3)CC2)c2cc(F)ccc2n1", "MIC": 31.7}
{"smiles": "COc1ccc2nc(C)cc(N3CCC(NC(=O)Nc4ccccc4)CC3)c2c1", "MIC": 32}
{"smiles": "COc1ccc(NC(=O)NC2CCN(c3cc(C)nc4ccc(OC)cc34)CC2)cc1", "MIC": 12.6}
{"smiles": "Cc1cc(N2CCC(NC(=S)Nc3ccc(Cl)cc3)CC2)c2ccccc2n1", "MIC": 15.2}
{"smiles": "Cc1cc(N2CCC(NC(=S)Nc3ccccc3)CC2)c2cc(C(F)(F)F)ccc2n1", "MIC": 35.8}
{"smiles": "Cc1ccc(NC(=O)NC2CCN(c3cc(C)nc4ccc(C(F)(F)F)cc34)CC2)cc1", "MIC": 28.1}
{"smiles": "Cc1cc(N2CCC(NC(=S)Nc3ccccc3)CC2)c2cc(F)ccc2n1", "MIC": 63.3}
{"smiles": "Cc1cc(N2CCC(NC(=S)Nc3ccc([N+](=O)[O-])cc3)CC2)c2ccccc2n1", "MIC": 7.65}
{"smiles": "Cc1cc(N2CCC(NC(=S)Nc3ccc(F)cc3)CC2)c2cc(F)ccc2n1", "MIC": 63.3}
{"smiles": "COc1ccc2nc(C)cc(N3CCC(NC(=O)Nc4ccc([N+](=O)[O-])cc4)CC3)c2c1", "MIC": 14.7}
{"molecular_target": "DNA gyrase subunit B (Mycobacterium smegmatis) (UniProt P0C559)", "sequence (P0C559 2-675 limits assumed)": "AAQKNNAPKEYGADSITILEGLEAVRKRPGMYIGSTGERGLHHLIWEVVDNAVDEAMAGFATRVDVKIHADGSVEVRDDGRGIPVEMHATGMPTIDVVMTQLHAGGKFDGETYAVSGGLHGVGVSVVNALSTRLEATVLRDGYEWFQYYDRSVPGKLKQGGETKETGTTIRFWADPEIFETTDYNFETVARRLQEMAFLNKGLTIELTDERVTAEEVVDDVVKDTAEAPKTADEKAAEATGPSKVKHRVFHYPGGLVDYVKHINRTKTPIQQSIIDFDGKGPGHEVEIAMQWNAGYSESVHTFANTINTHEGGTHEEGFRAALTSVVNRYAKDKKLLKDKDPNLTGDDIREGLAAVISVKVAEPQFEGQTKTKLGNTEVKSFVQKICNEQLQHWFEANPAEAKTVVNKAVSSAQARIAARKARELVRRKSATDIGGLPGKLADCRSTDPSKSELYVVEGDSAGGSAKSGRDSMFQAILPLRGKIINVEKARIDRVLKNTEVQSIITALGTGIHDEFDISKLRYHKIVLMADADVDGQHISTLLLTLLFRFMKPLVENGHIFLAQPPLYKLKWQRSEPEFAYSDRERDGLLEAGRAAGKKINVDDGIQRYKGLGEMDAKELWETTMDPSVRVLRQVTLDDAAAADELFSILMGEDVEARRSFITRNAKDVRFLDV", "test": "Binding affinity to Mycobacterium smegmatis GyrB assessed as increase in protein-compound complex stability by measuring right side positive shift of melting temperature by SYPRO-orange dye based differential scanning fluorimetry", "settings": "Mycolicibacterium smegmatis", "units": {"ΔTm": "°C"}}
{"smiles": "COc1ccc2nc(C)cc(N3CCC(NC(=S)Nc4ccc(Cl)cc4)CC3)c2c1", "ΔTm": 3.1}
{"species_on_record": "Danio rerio", "test": "Cardiotoxic inhibition of ERG channel in Zebrafish assessed as change in heart rate of atria at 30 uM after 4 hrs", "assay_type": "organism-based", "settings": "in vivo"}
{"smiles": "COc1ccc2nc(C)cc(N3CCC(NC(=S)Nc4ccc(C)cc4)CC3)c2c1", "Activity": "Toxic"}
{"species_on_record": "Danio rerio", "test": "Cardiotoxic inhibition of ERG channel in Zebrafish assessed as change in atrio ventricular beats ratio at 30 uM after 4 hrs", "assay_type": "organism-based, Cardiac ventricle", "settings": "in vivo"}
{"smiles": "COc1ccc2nc(C)cc(N3CCC(NC(=S)Nc4ccc(C)cc4)CC3)c2c1", "Activity": "Toxic"}
{"molecular_target": "DNA gyrase subunit B (Escherichia coli) (UniProt P0AES6)", "test": "Inhibition of Escherichia coli GyrB at 100 uM", "settings": "not given"}
{"smiles": "COc1ccc2nc(C)cc(N3CCC(NC(=S)Nc4ccc(Cl)cc4)CC3)c2c1", "inhibition": "inactive"}
